# Source: PubChem BioAssay AID2060498 (Molecular Pharmacology Branch, DTP, NCI, 2025)
# Tested on: 171881-019-R-J1-PDC tumor spheroids, viability
# Assay: Anticancer human tumor 171881-019-R-J1-PDC patient-derived invasive breast carcinoma cell line growth inhibition [GQUAD]
# Conditions: spheroids with HUVEC and MSC; for IC50: curve of first compound; for viability, T/C: stronger effect = lower value
# Outline: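 Viability of tumor cells grown as complex spheroids with endothelial and stromal cells, exposed to drug combinations. Top concentration at or near clinical Cmax (else 10 microM), diluted in half-log increments.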
# 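Note: spheroids exposed to compounds for 7 days.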
# 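Throughout, for viability, T/C: 100% = DMSO vehicle control viability.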
smiles,measurement,setting,value
CC(C)n1c(=O)n(C)c2cnc3cc(F)c(-c4ccc(OCCCN5CCCCC5)nc4)cc3c21 + CN(C)c1ccc(Nc2c3ccc(NC(=O)CCN4CCCC4)cc3nc3cc(NC(=O)CCN4CCCC4)ccc23)cc1,IC50,second compound 0.0316 µM,2.41 µM
same,IC50,second compound 0.1 µM,2.21 µM
same,IC50,second compound 0.316 µM,0.67 µM
same,IC50,second compound 1 µM,< 0.0316 µM
same,IC50,second compound 3.16 µM,< 0.0316 µM
same,IC50,second compound 10 µM,< 0.0316 µM
same,"viability, T/C","second compound 0.0316 µM, first compound 0.0316 µM",95.7%
same,"viability, T/C","second compound 0.0316 µM, first compound 0.1 µM",100%
same,"viability, T/C","second compound 0.0316 µM, first compound 0.316 µM",88.1%
same,"viability, T/C","second compound 0.0316 µM, first compound 1 µM",80.4%
same,"viability, T/C","second compound 0.0316 µM, first compound 3.16 µM",40.4%
same,"viability, T/C","second compound 0.0316 µM, first compound 10 µM",12.9%
same,"viability, T/C","second compound 0.1 µM, first compound 0.0316 µM",93%
same,"viability, T/C","second compound 0.1 µM, first compound 0.1 µM",108%
same,"viability, T/C","second compound 0.1 µM, first compound 0.316 µM",92%
same,"viability, T/C","second compound 0.1 µM, first compound 1 µM",84.9%
same,"viability, T/C","second compound 0.1 µM, first compound 3.16 µM",34.3%
same,"viability, T/C","second compound 0.1 µM, first compound 10 µM",9.41%
same,"viability, T/C","second compound 0.316 µM, first compound 0.0316 µM",82.2%
same,"viability, T/C","second compound 0.316 µM, first compound 0.1 µM",79.6%
same,"viability, T/C","second compound 0.316 µM, first compound 0.316 µM",69.3%
same,"viability, T/C","second compound 0.316 µM, first compound 1 µM",37.6%
same,"viability, T/C","second compound 0.316 µM, first compound 3.16 µM",20.3%
same,"viability, T/C","second compound 0.316 µM, first compound 10 µM",4.16%
same,"viability, T/C","second compound 1 µM, first compound 0.0316 µM",18.5%
same,"viability, T/C","second compound 1 µM, first compound 0.1 µM",16.8%
same,"viability, T/C","second compound 1 µM, first compound 0.316 µM",19.4%
same,"viability, T/C","second compound 1 µM, first compound 1 µM",8.58%
same,"viability, T/C","second compound 1 µM, first compound 3.16 µM",6.36%
same,"viability, T/C","second compound 1 µM, first compound 10 µM",1.3%
same,"viability, T/C","second compound 3.16 µM, first compound 0.0316 µM",1.45%
same,"viability, T/C","second compound 3.16 µM, first compound 0.1 µM",1.78%
same,"viability, T/C","second compound 3.16 µM, first compound 0.316 µM",1.74%
same,"viability, T/C","second compound 3.16 µM, first compound 1 µM",1.06%
same,"viability, T/C","second compound 3.16 µM, first compound 3.16 µM",1.03%
same,"viability, T/C","second compound 3.16 µM, first compound 10 µM",0.15%
same,"viability, T/C","second compound 10 µM, first compound 0.0316 µM",0.27%
same,"viability, T/C","second compound 10 µM, first compound 0.1 µM",0.4%
same,"viability, T/C","second compound 10 µM, first compound 0.316 µM",0.34%
same,"viability, T/C","second compound 10 µM, first compound 1 µM",0.37%
same,"viability, T/C","second compound 10 µM, first compound 3.16 µM",0.25%
same,"viability, T/C","second compound 10 µM, first compound 10 µM",0.28%
